Data from patent US10988523B2, “Modified lipidated Relaxin B chain peptides and their therapeutic use” (Sanofi, priority 2018, dated 2021).
*1 amine or outer side, *2 acyl side, *3 side chain or, on linkers, in order; H or OH if unused. Where a SMILES comes first, the peptide text is derived from it. Side-chain parts run from the residue outwards. [ ]: non-standard residue; d: D form. The star is where a group is joined. X1 = CCCCCCCCCCCCCCCCCC(=O)N[C@@H](CCC(=O)N[C@@H](CCC(=O)N[C@@H](CCC(=O)NCCCC[C@H](NC(=O)COCC(=O)NCCCOCCOCCOCCCNC(=O)COCC(=O)NCCCOCCOCCOCCCN*)C(N)=O)C(=O)O)C(=O)O)C(=O)O; γGlu = O=C(O)[C@H](CCC(=O)[*:2])N[*:1]; Palmitoyl = CCCCCCCCCCCCCCCC(=O)*; αMeK = C[C@](N)(CCCCN)C(=O)O; Nle = CCCC[C@H](N)C(=O)O; AEEA = NCCOCCOCC(=O)O; Aib = CC(C)(N)C(=O)O

Tests used:
[1] = Stability testing of peptides in rat plasma or blood; assay type: in vitro ADME; conditions: 37° C.
Description: (§1) Prior to the testing of stability in plasma (or blood) of a peptide batch, its purity (HPLC-UV) was determined.
(§2) Rat and Human plasma: anti-coagulant sodium or lithium heparin.
(§3) Rat and Human blood: anti-coagulant sodium or lithium heparin. • Stock solution: • 100 μM solution of study compound in 50 mM Phosphate buffer pH 7.4. • 950 μL plasma (or blood) was pre-incubated for 5 min at 37° C. 50 μL of compound stock solution was added. Final compound concentration=5 μM. Vortex and transfer 1504, plasma (or blood) into an Eppendorf for each time point. The time points […] were carried out in duplicate for each species.
(§4) After incubation 150 μL, plasma (or blood) was extracted with 600 μL, Acetonitrile containing with 1% TFA. Then, vortexed and centrifuged 10 min at 14600 rpm. 200 μL supernatant was dried under N2. The sample was reconstituted in 200 μL of H2O/CH3CN 98/2+0.1% FA+50 ng/ml Labetalol and analyzed using the analytical system used in solubility and stability studies.
(§5) For determination of the amount of the remaining peptide, the peak areas of the target compound at t0 and each time point […] were compared, resulting in “% remaining peptide”, following the equation: % remaining peptide=[(peak area peptide time)×100]/peak area peptide t0. The stability is expressed as “% remaining peptide”.

[2] = Stability testing of peptides in human plasma or blood; assay type: in vitro ADME; conditions: 37° C.
Description: as §1, §2, §3, §4, §5

RXFP1 = target: T1, RXFP1 (Homo sapiens, UniProt Q9HBX9); assay: OVCAR5 cAMP assay (HTRF), RXFP1 agonist activity; assay type: cell-based; conditions: for EC50: OVCAR5 cells, cAMP HTRF, read-out: EC50 (nM), OVCAR 5 cells (cAMP); for Emax: OVCAR-5, maximal cAMP relative to H2-relaxin maximum (100%), read-out: EMax, OVCAR 5 cells (cAMP)
T1 construct: OVCAR5 cells expressing endogenous RXFP1; endogenous in cells; host or cells: OVCAR5 cells
T1 sequence (Q9HBX9 1-757): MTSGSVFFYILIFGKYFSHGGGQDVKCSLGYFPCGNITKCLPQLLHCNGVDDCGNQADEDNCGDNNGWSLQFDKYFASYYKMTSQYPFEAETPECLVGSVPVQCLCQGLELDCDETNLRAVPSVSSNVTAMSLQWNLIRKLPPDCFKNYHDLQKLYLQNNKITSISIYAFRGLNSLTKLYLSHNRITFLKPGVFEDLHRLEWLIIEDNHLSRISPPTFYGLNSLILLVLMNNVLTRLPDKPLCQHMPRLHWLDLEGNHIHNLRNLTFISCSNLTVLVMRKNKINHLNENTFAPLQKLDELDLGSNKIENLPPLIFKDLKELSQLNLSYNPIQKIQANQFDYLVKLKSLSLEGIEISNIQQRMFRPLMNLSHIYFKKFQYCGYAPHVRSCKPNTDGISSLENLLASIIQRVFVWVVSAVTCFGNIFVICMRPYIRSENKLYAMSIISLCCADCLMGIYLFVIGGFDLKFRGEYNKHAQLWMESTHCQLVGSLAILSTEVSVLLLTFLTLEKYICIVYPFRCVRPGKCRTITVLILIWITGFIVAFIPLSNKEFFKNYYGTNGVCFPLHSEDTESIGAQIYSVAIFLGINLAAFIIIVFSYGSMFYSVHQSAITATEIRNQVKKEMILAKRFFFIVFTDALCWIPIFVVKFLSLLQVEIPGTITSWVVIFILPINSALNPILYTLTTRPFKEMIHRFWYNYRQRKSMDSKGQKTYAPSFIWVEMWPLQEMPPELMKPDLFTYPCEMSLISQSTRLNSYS
Method in brief: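 OVCAR5 cells (endogenous RXFP1) pretreated 40 min at 37° C with 1 mM IBMX, then exposed to peptides in serum-free medium for 30 min at 37° C. Lysate cAMP read by HTRF; EC50 from variable-slope sigmoidal fit; Emax as % of H2-relaxin maximal cAMP in same run.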

[3] = Pharmacokinetic (PK) determination after i.v. or s.c. administration to rats; assay type: in vivo, Sprague Dawley rats; conditions: Sprague Dawley, Rat PK
Method in brief: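 Sprague Dawley rats received peptide in PBS at 1 mg/kg i.v. or 3 mg/kg s.c., dose corrected for salts, solvent and purity. Plasma analysed by LC/MS after protein precipitation; non-compartmental PK, BLQ values set to zero, F% as dose-corrected s.c./i.v. AUC ratio.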

Rat plasma stability % remaining T = 0 ([1]; rat plasma or blood, T = 0 (reference), 5 μM) [%] | remaining at 1 h, 5 µM ([1]; rat plasma, 1 h, read-out: Rat plasma stability % remaining 1 h) [%] | remaining at 4 h, 5 µM ([1]; rat plasma, 4 h, read-out: Rat plasma stability % remaining 4 h) [%] | Human Plasma stability % remaining T = 0 ([2]; human plasma or blood, T = 0 (reference), 5 μM) [%] | remaining at 1 h, 5 µM ([2]; human plasma, 1 h, read-out: Human Plasma stability % remaining 1 h) [%] | remaining at 4 h, 5 µM ([2]; human plasma, 4 h, read-out: Human Plasma stability % remaining 4 h) [%] | EC50 (RXFP1) [nM] | Emax (RXFP1) [%] | C0 ([3]; iv, 1 mg/kg i.v., extrapolated plasma concentration at t=0, read-out: C0) [nM] | half-life ([3]; plasma, iv, 1 mg/kg i.v., read-out: T½ (converted)) [h] | Cmax ([3]; plasma, sc, 3 mg/kg s.c.) [nM] | Tmax ([3]; plasma, sc, 3 mg/kg s.c.) [h] | bioavailability ([3]; plasma, subcutaneous, 3 mg/kg s.c. vs 1 mg/kg i.v., dose-corrected AUC ratio) [%] | Compound
100 | 99 | 89 | 100 | 86 | 90 | 0.15 | 96 |  |  |  |  |  | CCCCCCCCCCCCCCCCCC(=O)N[C@@H](CCC(=O)N[C@@H](CCC(=O)N[C@@H](CCC(=O)NCCCC[C@H](NC(=O)COCC(=O)NCCCOCCOCCOCCCNC(=O)COCC(=O)NCCCOCCOCCOCCCNC(=O)[C@H](CCCCNC(C)=O)NC(=O)[C@H](CCCCN)NC(=O)[C@H](CCCNC(=N)N)NC(=O)C(C)(C)NC(=O)[C@H](CO)NC(=O)[C@H](Cc1c[nH]c2ccccc12)NC(=O)[C@@H](NC(=O)[C@H](CO)NC(=O)[C@H](CCCC)NC(=O)CNC(=O)[C@H](CCC(=O)O)NC(=O)C(C)(C)NC(=O)C(C)(C)NC(=O)[C@@H](NC(=O)[C@H](CCCCNC(C)=O)NC(=O)[C@H](C)NC(=O)[C@H](CCCNC(=N)N)NC(=O)[C@@H](NC(=O)[C@H](CCCCN)NC(=O)[C@H](CCC(=O)O)NC(=O)[C@H](CCCNC(=N)N)NC(=O)CNC(=O)[C@H](CCC(=O)O)NC(=O)[C@H](CC(C)C)NC(C)=O)C(C)C)[C@@H](C)CC)[C@@H](C)O)C(N)=O)C(=O)O)C(=O)O)C(=O)O [compound 19] (Ac-LEGREKVRAK(Ac)I[Aib][Aib]EG[Nle]STWS[Aib]RKK(Ac)-X1)
 |  |  |  |  |  | 0.28 | 86 | 2500 | 5.3 | 1200 | 7 | 66 | CCCCCCCCCCCCCCCC(=O)N[C@@H](CCC(=O)N[C@@H](CCC(=O)NCCCC[C@H](NC(=O)CC[C@H](NC(=O)CC[C@H](NC(=O)COCCOCCNC(=O)COCCOCCNC(=O)COCCOCCNC(=O)COCCOCCNC(=O)[C@H](CCCCNC(C)=O)NC(=O)[C@H](C)NC(=O)[C@H](CCCNC(=N)N)NC(=O)[C@](C)(CCCCN)NC(=O)[C@H](CO)NC(=O)[C@H](Cc1ccccc1)NC(=O)[C@@H](NC(=O)[C@H](CO)NC(=O)[C@H](CCCC)NC(=O)CNC(=O)[C@H](CCC(=O)O)NC(=O)C(C)(C)NC(=O)C(C)(C)NC(=O)[C@@H](NC(=O)[C@H](CCCCNC(C)=O)NC(=O)[C@H](C)NC(=O)[C@H](CCCNC(=N)N)NC(=O)[C@@H](NC(=O)[C@H](CCCCN)NC(=O)[C@H](CCC(=O)O)NC(=O)[C@H](CCCNC(=N)N)NC(=O)CNC(=O)[C@H](CCC(=O)O)NC(=O)[C@H](CC(C)C)NC(C)=O)C(C)C)[C@@H](C)CC)[C@@H](C)O)C(=O)O)C(=O)O)C(N)=O)C(=O)O)C(=O)O [compound 160] (Ac-LEGREKVRAK(Ac)I[Aib][Aib]EG[Nle]STFS[αMeK]RAK(Ac)[AEEA][AEEA][AEEA][AEEA][γGlu][γGlu]K([γGlu-γGlu-Palmitoyl])-NH2)
